Laboratory results reported in US7098215B2, “Nitrogenous compounds and antiviral drugs containing the same” (Kureha Chemical Industry Co., Ltd., priority 2000, dated 2006).

Key:
ICR male mice = experiment: Acute toxicity in ICR mice, intraperitoneal administration; assay type: in vivo; conditions: 3 per group, 50 mg/kg intraperitoneally, twice a day, for four days, number of dead animals after 5 days
Experimental: Acute toxicity of the antiviral drug was examined. Three groups of 7 week-old, ICR male mice, each group consisting of 3 mice, were bred for one week. The compounds prepared in the Examples, dissolved in a physiological saline solution or distilled water, were intraperitoneally administered at a dose of 50 mg/kg, twice a day, for four days. After 5 days, the number of dead animals was examined.

[1] = system: HIV-1IIIB infected MT-4 cells; experiment: Anti-HIV activity: protection of HIV-1IIIB infected MT-4 cells, MTT method; assay type: cell-based; conditions: MOI 0.01, culture for 5 days, concentration inhibiting 50% of cytotoxicity due to HIV infection
Experimental: HIV-1IIIB infected MT-4 cells were added to 96-well microtiter plates (3.0×10^4/well, MOI (Multiplicity of infection): 0.01), together with test compounds at different concentrations immediately after the infection. After culture for 5 days in a carbon dioxide incubator at 37° C., the number of surviving cells was counted by MTT (tetrazolium) method (Pawels et al., J. Virol. Methods, 20, 309-321, 1988).

HIV-1 (NL4-3) = experiment: Antiviral effect in SCID mice transplanted with human PBMCs and infected with HIV-1 (NL4-3), HIV-1 p24 by ELISA; assay type: in vivo; conditions: SCID mice with human PBMCs, virus NL4-3, 0.1 ml/2 mM solution/mouse intraperitoneally, 12 days after infection
Experimental: The effect of the antiviral drug on SCID mice (immunodeficiency mice) was examined.
TMβ-1 (rat anti-mouse IL-2Rβ monoclonal antibody) was intraperitoneally administered to C.B-17 SCID mice (8 weeks-old, female, provided by CLEA Japan, Inc.) in the amount of 1 mg/mouse to exterminate NK cells. After 2 days, 1.5×10^6 human PBMCs were transplanted in the spleen together with human rIL-4 (0.2 μg/mouse). On the same day, the compound No. 86 (0.1 ml/2 mM solution/mouse) or a medium (0.1 ml) (control) was intraperitoneally administered. After 1 day, HIV-1 (NL4-3) (0.2 ml/1×10^4 TCID50/ml) was intraperitoneally administered to cause virus infection. The same amount of the compound No. 86 (or the medium) was intraperitoneally administered on each of 4 consecutive days thereafter. rIL-4 (0.2 μg) was also intraperitoneally administered 4 days after infection. 12 days after infection, blood plasma and abdominal cavity washing solutions were collected to measure the amount of HIV-1 P^24 using an ELISA kit.

What does the source list for `O=C(N[C@@H](CCCNC1CCCc2cccnc21)C(=O)NCc1cccc2ccccc12)c1ccc(CNCc2ncc[nH]2)c2ccccc12` (stereo partly drawn) [Compound No. 41, (2S)-2-(4-((N-imidazol-2-ylmethyl)aminomethyl)naphthoylamino)-5-(5,6,7,8-tetrahydroquinolin-8-ylamino)valeric acid 1-naphthalenemethylamide]?
Dead mouse (ICR male mice): 0/3; EC50 [1]: 35 nM

With `C[C@H](NC(=O)[C@H](CCCNC1CCCc2cccnc21)NC(=O)c1ccc(CNCc2ncc[nH]2)c2ccccc12)c1cccc2ccccc12` (stereo partly shown) [Compound No. 57] as the compound, how does the Dead mouse (ICR male mice) read?
The Dead mouse was 0/3.

What about the EC50 [1] of the same compound?
The EC50 was 82 nM.

With `C[C@H](NC(=O)[C@H](CCCNC1CCCc2cccnc21)NC(=O)c1ccc(CNCc2nccn2C)cc1)c1cccc2ccccc12` (stereo partly shown) [Compound No. 107] as the compound, how does the Dead mouse (ICR male mice) read?
Its Dead mouse is 0/3.

What about the EC50 [1] of the same compound?
The EC50 was 35 nM.

Which results are given for `C[C@H](NC(=O)[C@H](CCCN=C(N)N)NC(=O)c1ccc(CNCc2ccccn2)cc1)c1cccc2ccccc12` [Compound No. 86, N^α-(4-(N-2-picolylaminomethyl)benzoyl)-L-arginine (1′S)-1′-(1-naphthyl)ethylamide]?
Dead mouse (ICR male mice): 0/3; p24 level Abdominal cavity washing solution (HIV-1 (NL4-3)): <5 pg/mL; p24 level Plasma (HIV-1 (NL4-3)): <5 pg/mL; EC50 [1]: 43 nM

How did the Dead mouse (ICR male mice) turn out when `O=C(N[C@@H](CCCNC1CCCc2cccnc21)C(=O)NCc1cccc2ccccc12)c1ccc(CNCc2ccccn2)cc1` (stereo partly drawn) [Compound No. 65, (2S)-2-(4-(N-2-picolylaminomethyl)benzoylamino)-5-((5,6,7,8-tetrahydroquinolin-8-yl)amino)valeric acid 1-naphthalenemethylamide] was run?
Its Dead mouse is 0/3.

What about the EC50 [1] of the same compound?
Its EC50 is 93 nM.

Which Dead mouse (ICR male mice) does the source give for `C[C@H](NC(=O)[C@H](CCCNC(=N)N)NC(=O)c1ccc(CNCc2ncc[nH]2)c2ccccc12)c1cccc2ccccc12` [Compound No. 49, N^α-(4-(imidazol-2-ylmethyl)aminomethylnaphthoyl)-L-arginine(1′S)-(1′-(1-naphthyl)ethyl)amide] here?
Its Dead mouse is 0/3.

And the EC50 [1]?
Its EC50 is 86 nM.

`C[C@H](NC(=O)[C@H](CCCNC1CCCc2cccnc21)NC(=O)c1ccc(CNCc2ncc[nH]2)cc1)c1cccc2ccccc12` (stereo partly shown) [Compound No. 106] was tested. Which Dead mouse (ICR male mice) did it give?
Its Dead mouse is 0/3.

And the EC50 [1]?
Its EC50 is 25 nM.
